Calls of active or inactive are those of the source. No cut-off for these calls is given here.
Experiments:
[1] = Cmax in Sprague-Dawley rat at 0.3 mg/kg,iv measured at 0.05 to 24 hrs of post administration by LC-MS/MS analysis; format: ADME, organism-based; settings: in vivo, time 0.05-24 hrs
[2] = system: Mus musculus; experiment: Antidepressant activity in Reserpine-induced depressive ICR mouse model assessed as change in total distance traveled at 25 to 300 microg/kg,ip administrated on day 4 to 8 measured on day 9 by open field test; format: functional, organism-based; settings: dose 25-300 µg/kg, time 6.0 day
[3] = system: Mus musculus; experiment: Antidepressant activity in Reserpine-induced depressive ICR mouse model assessed as reduction in weight loss at 25 to 300 microg/kg,ip administrated on day 4 to 8 for 5 days; format: functional, organism-based; settings: dose 25-300 µg/kg, time 5.0 day
[4] = Tmax in Sprague-Dawley rat at 0.3 mg/kg,ip measured at 0.05 to 24 hrs of post administration by LC-MS/MS analysis; format: ADME, organism-based; settings: in vivo, time 0.05-24 hrs
[5] = AUC (0 to last) in Sprague-Dawley rat at 0.3 mg/kg,iv measured at 0.05 to 24 hrs of post administration by LC-MS/MS analysis; format: ADME, organism-based; settings: in vivo, time 0.05-24 hrs
[6] = AUC (0 to infinity) in Sprague-Dawley rat at 0.3 mg/kg,iv measured at 0.05 to 24 hrs of post administration by LC-MS/MS analysis; format: ADME, organism-based; settings: in vivo, time 0.05-24 hrs
[7] = AUC (0 to infinity) in Sprague-Dawley rat at 0.3 mg/kg,ip measured at 0.05 to 24 hrs of post administration by LC-MS/MS analysis; format: ADME, organism-based; settings: in vivo, time 0.05-24 hrs
[8] = MRT (0 to last) in Sprague-Dawley rat at 0.3 mg/kg,iv measured at 0.05 to 24 hrs of post administration by LC-MS/MS analysis; format: ADME, organism-based; settings: in vivo, time 0.05-24 hrs
[9] = Bioavailability in Sprague-Dawley rat at 0.3 mg/kg,ip measured at 0.05 to 24 hrs of post administration by LC-MS/MS analysis; format: ADME, organism-based; settings: in vivo, time 0.05-24 hrs
[10] = system: Mus musculus; experiment: Antidepressant activity in Reserpine-induced depressive C57BL/6J mouse model assessed as decrease in immobility time at 0.1 to 0.3 mg/kg,ip administration measured after 7 days by tail suspension test; format: functional, organism-based; settings: dose 0.1-0.3 mg/kg, time 7.0 day
[11] = Toxicity in chronic restraint stress-induced depressive C57BL/6J mouse model assessed as decrease in percentage of spontaneous alternation at 4 mg/kg,ip administration by Y-maze test; format: organism-based; settings: in vivo
[12] = system: Mus musculus; experiment: Antidepressant activity in chronic restraint stress-induced depressive C57BL/6J mouse model assessed as increase in hippocampal BDNF mRNA expression at 0.3 mg/kg,ip administration measured after 24 hrs by qRT-PCR analysis; format: functional, organism-based
[13] = target: T1, Muscarinic acetylcholine receptor M1 (Homo sapiens, UniProt P11229); experiment: Antagonist activity at human muscarinic M1 receptor expressed in CHO cells incubated for 10 mins in presence of acetylcholine by inositol 1-phosphate accumulation assay; format: functional, cell-based
T1 sequence (P11229 whole entry): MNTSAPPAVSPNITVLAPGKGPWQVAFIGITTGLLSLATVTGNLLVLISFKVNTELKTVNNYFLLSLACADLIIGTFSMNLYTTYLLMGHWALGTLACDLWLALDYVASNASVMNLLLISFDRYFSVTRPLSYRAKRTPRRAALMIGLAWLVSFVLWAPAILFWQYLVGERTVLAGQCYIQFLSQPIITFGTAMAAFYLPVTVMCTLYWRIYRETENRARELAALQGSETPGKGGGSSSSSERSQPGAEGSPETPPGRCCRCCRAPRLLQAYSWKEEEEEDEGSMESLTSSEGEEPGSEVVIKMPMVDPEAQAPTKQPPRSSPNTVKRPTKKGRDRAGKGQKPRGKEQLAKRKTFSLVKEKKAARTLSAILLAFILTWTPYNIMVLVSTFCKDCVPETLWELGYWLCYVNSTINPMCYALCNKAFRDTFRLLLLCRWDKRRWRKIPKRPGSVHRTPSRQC

In the case of CN1[C@@H]2C[C@@H](OC(=O)[C@@](F)(CO)c3ccccc3)C[C@H]1[C@@H]1O[C@@H]12, the Cmax [1] is reported as 230 ng/mL, the Activity [2] is reported as “inactive” and the Activity [3] is reported as “Active”. It also gave a Tmax [4] of 12.5 min, an AUC(0-t) [5] of 68.3 ng·h/mL and an AUC(0-inf) [6] of 71.4 ng·h/mL. For the same molecule, the AUC(0-inf) [7] was 25.9 ng·h/mL, the MRT last [8] was 13.8 min and the bioavailability [9] was 35.5%. The Activity [10] was “Active”, the Activity [11] was “Toxic” and the Activity [12] was “inactive”. The IC50 [13] was 14.6 nM.
